Usually solubility stands for the dissolved amount per volume that the medium holds.

Series [1] has as its system in vitro model of the blood–brain barrier based on human induced pluripotent stem cell-derived microvascular endothelial cells, astrocytes, and pericytes. As to the kind of experiment: In vitro BBB permeability test (iCell Blood-Brain Barrier Kit, tricellular model). To be noted: Pe of nanoemulsion vs solution. In kind it is in vitro ADME.
From the text: The iCell® Blood-Brain Barrier Kit (FUJIFILM Cellular Dynamics, Inc., Madison, WI, USA) contained the following: iCell Astrocytes, iCell BMEC (Brain Microvascular Enothelial Cells), iCell Pericytes, iCell Astrocytes & iCell Pericytes Medium, iCell BMEC Maintenance Medium, and iCell Plating Supplement 500×. […]
The iCell® Blood-Brain Barrier Kit (FUJIFILM Cellular Dynamics, Madison, WI, USA) contained astrocytes, pericytes, and brain microvascular endothelial cells. […] For comparison, the contribution of the carrier itself was evaluated using a GL-II-73 solution in ultrapure water.
The transendothelial electrical resistance (TEER) parameter was used to verify the integrity of the barrier. […] The measured TEER values were corrected with TEER values from wells with empty filters and the medium. The final TEER values (Ω × cm^2) were calculated by adjusting the corrected TEER values to the filter surface. […] For this purpose, 100 µL was taken from the basolateral side (containing 1 mL iCell Maintenance Medium) to be analyzed by LC/MS-MS. […]
The Pe parameter (permeability coefficient; cm/min) was calculated as described earlier [19, 20] and used to evaluate the rate and the effectiveness of GL-II-73 transport through the BBB. […]
The Pe value was determined by dividing the Pse values by the surface area of the membrane of the insert (cm^2).
Series [2] can be described thus: In vivo neuropharmacokinetic study, plasma and brain, intraperitoneal administration. The note with it: rat; for availability in the brain (AUC0–36) higher after nanoemulsion compared to the solution: intraperitoneal administration; for AUC 0-36: brain. Also noted: species or system Sprague Dawley rats.
Method: The neuropharmacokinetic study was performed after intraperitoneal administration of the optimized nanoemulsion (NE4) or a 2 mg/mL GL-II-73 solution (solvent consisting of 14% (w/v) propylene glycol and 1% (w/v) polysorbate 80 in ultrapure water). Female Sprague Dawley rats, approximately two months old and weighing 160–200 g, were housed four per cage. The animal room was kept at a temperature of 22 ± 1 °C and a relative humidity of 40–70%. The alternation of light and darkness took place in a 12 h rhythm (light at 6:00 a.m.) with an illumination of 120 lx.
The test animals were divided into two groups of 27 rats each (3 animals per time point). One group received the GL-II-73 solution, the other group the GL-II-73 nanoemulsion, each at a dose of 10 mg/kg. At predefined intervals (5 min, 15 min, 30 min, 1 h, 2 h, 4 h, 8 h, 16 h, and 36 h), the animals were anesthetized with ketamine hydrochloride 90 mg/kg (Ketamidor, Richter Pharma AG, Vienna, Austria) and blood and brain samples were taken. Blood was collected by cardiac puncture with heparinized syringes and centrifuged at 1000× g for 10 min (MiniSpin® plus centrifuge, Eppendorf, Hamburg, Germany) to separate plasma. The isolated brains were weighed and homogenized in 1 mL methanol using an ultrasonic probe. The homogenized brain samples were subsequently centrifuged at 3400× g for 20 min to collect the supernatants. Plasma and the supernatants of the brain homogenates were further purified by solid phase extraction using Oasis HLB cartridges (Waters Corporation, Milford, MA, USA). The cartridges were preconditioned with methanol and then with water prior to application of the sample and internal standard. […] The concentration of GL-II-73 and its metabolite MP-III-022 was quantified in the eluates by liquid chromatography–tandem mass spectrometry (LC-MS/MS).
The nature of series [3]: Solubility of GL-II-73 in various media, shake flask method. To be noted: thermodynamic from solid. In kind it is physicochemical. As to the method: The solubility of GL-II-73 was investigated in various media using the shake flask method. In brief, GL-II-73 was added in excess and mixed overnight on the vortex, followed by centrifugation to remove any excess of undissolved drug. The supernatants were then diluted in methanol and GL-II-73 content was determined by the LC/MS-MS method.
A liquid chromatographic system, the Accela 1000 (Thermo Fisher Scientific, San Jose, CA, USA), which includes a quaternary pump and an autosampler, was used for chromatographic analyses. All runs were performed with an XTERRA® MS C18 column (150 mm × 2.1 mm, 3.5 µm; Waters, Dublin, Ireland) maintained at 25 °C. Samples were stored in the autosampler temperature-controlled compartment at 8 °C. Isocratic elution was performed with a mixture of acetonitrile and 0.1% aqueous formic acid (60:40, v/v) at a flow rate of 300 µL/min. The total analysis time was 4.5 min. Mass spectrometric analyses were performed using a TSQ Quantum Access MAX (Thermo Fisher Scientific, Waltham, MA, USA) triple-quadrupole spectrometer equipped with a heated electrospray ionization (HESI) source. Operating conditions of the MS were optimized as follows: the spray voltage was set to 4000 V, with a skimmer offset of 0 V; the evaporator and capillary temperatures were set to 350 °C and 300 °C, respectively; nitrogen was used as both the nebulizer and auxiliary gas, with flow rates of 50 and 10 arbitrary units, respectively; and the collision gas pressure in q2 was maintained at 1.4 mTorr of argon. Data acquisition was performed with Selected Reaction Monitoring (SRM) in positive scan mode. The [M + H]^+ transitions m/z of SRM were 387.2 → 342.2 (CE 21 V), 373.1 → 314.0 (CE 29 V), and 347.0 → 302.0 (CE 28 V) for GL-II-73, MP-III-022, and SHI-I-048A (as internal standard), respectively. The Thermo Xcalibur 2.1 software was used for data acquisition.

In brackets after ≈: the same amount, converted by molar mass. Entries after “also recorded” stand apart in the source; their conditions may differ. Some results are limits rather than exact numbers.

Consider `C#Cc1ccc2c(c1)C(c1ccccc1F)=N[C@H](C)c1c(C(=O)N(C)C)ncn1-2` [GL-II-73], for which, in series [1], the “Permeability of GL-II-73 through the BBB, nanoemulsion relative to solution” value was “twice as high; also recorded: more than twofold higher”. Besides, in series [2], the “availability in the brain (AUC0–36) higher after nanoemulsion compared to the solution” value is on record as 24%. Besides, in series [2] (systemic administration), the “sum of brain AUC0-36 values for the parent molecule and its metabolite, nanoformulation compared to the solution” value was “one-third higher”. Besides, the solubility is 4.49 ± 0.148 mg/mL (≈ 11.6 mM) in series [3] (MCT, oil or lipid); 0.951 ± 0.0414 mg/mL (≈ 2.46 mM) in series [3] (aqueous buffer, Phosphate buffer (pH 7.4)); greater than 534 mg/mL in series [3] (benzyl alcohol, organic solvent or mixture); 2.82 ± 0.184 mg/mL (≈ 7.3 mM) in series [3] (castor oil, oil or lipid); 2.4 ± 0.331 mg/mL (≈ 6.2 mM) in series [3] (fish oil, oil or lipid); 131 mg/mL (≈ 339 mM) in series [3] (isopropanol, organic solvent or mixture). In addition, the solubility in series [3] (methanol, organic solvent or mixture) is greater than 1470 mg/mL; in series [3] (simulated gastric fluid, 0.1 M HCl (pH 1.2)) it was 5.37 ± 0.195 mg/mL (≈ 13.9 mM); in series [3] (soybean oil, oil or lipid), 3.06 ± 0.137 mg/mL (≈ 7.91 mM); in series [3] (Water (pH 5.2)), 1 ± 0.0399 mg/mL (≈ 2.59 mM).
With `C#Cc1ccc2c(c1)C(c1ccccc1F)=N[C@H](C)c1c(C(=O)NC)ncn1-2` [MP-III-022], the results for the “AUC 0-36” value in series [2] (metabolite MP-III-022 after 10 mg/kg GL-II-73 nanoemulsion NE4 i.p.) and in series [2] (metabolite MP-III-022 after 10 mg/kg GL-II-73 solution i.p.) were 167.36 ± 70.56 ng·h/g and 103.75 ± 2.05 ng·h/g, respectively. Besides, in series [2], the “availability in the brain (AUC0–36) higher after nanoemulsion compared to the solution” value came to 61%.

The values are drawn from paper PMC11944986, “Parenteral Nanoemulsion for Optimized Delivery of GL-II-73 to the Brain—Comparative In Vitro Blood–Brain Barrier and In Vivo Neuropharmacokinetic Evaluation” (Pharmaceutics, 2025).
